Assay results reported in patent US8247211B2, “Glycopeptide antibiotics” (American Cyanamid Company, priority 2001, dated 2012).

What was measured:
Assay in all cases: In vitro antibacterial evaluation: minimum inhibitory concentration (MIC), broth dilution method
Assay type in all cases: cell-based
Enterococcus sp. = test system: Enterococcus sp.
Method: (§1) The minimum inhibitory concentration (MIC), the lowest concentration of the antibiotic which inhibits growth of the test organism, is determined by the broth dilution method using Muller-Hinton II […] (Baltimore Biological Laboratories) following the recommendations of the National Committee for Clinical Laboratory Standards [Methods for dilution antimicrobial susceptibility tests for bacteria that grow aerobically, approved standard M7-A2, National Committee for Clinical Laboratory Standards, Villanova, Pa].
(§2) An inoculum level of 5×10^5 CFU/mL, and a range of antibiotic concentrations (64-0.06 μg/mL) is used. […] The test organisms include a spectrum of Gram-positive bacteria comprised of Staphylococcus sp., Streptococcus sp. and Enterococcus sp. These organisms include recent clinical isolates that are resistant to methicillin, penicillin and/or vancomycin.

Streptococcus sp. = test system: Streptococcus sp.
Method: as §1, §2

Staphylococcus sp. = details: broth dilution, 18 hours at 35° C.
Method: as §1, §2

Escherichia coli = test system: Escherichia coli
Method: as §1, §2

[1] = broth dilution, inoculum 5×10^5 CFU/mL, 18 hours at 35° C.

COc1cc(C2OCC3OC(OC4C(CO)OC(Oc5ccc(CC6NC(=O)C(C(C)c7ccccc7)NC(=O)CNC(=O)C(CO)NC(=O)C(C(O)C7CNC(=N)N7C7OC(CO)C(O)C(O)C7O)NC(=O)C(C(O)C7CNC(=N)N7)NC6=O)cc5)C(O)C4O)C(O)C(O)C3O2)cc([N+](=O)[O-])c1O (stereo not drawn) [Example 169, Cyclo[glycyl-β-methylphenylalanyl-O-[4-O-[4,6-O-(4-hydroxy-3-methoxy-4-nitro-benzylidene)hexopyranosyl]hexopyranosyl]tyrosyl-3-(2-iminoimidazolidin-4-yl)seryl-3-(3-hexopyranosyl-2-iminoimidazolidin-4-yl)serylseryl]]
8 µg/mL: MIC Streptococcus pneumoniae (ATCC 6301) (Streptococcus sp.; [1]) | MIC Streptococcus pneumoniae (GC 1894) (Streptococcus sp.; [1]) | MIC Streptococcus pneumoniae (GC 4565) (Streptococcus sp.; [1]) | MIC Streptococcus pneumoniae (ATCC 6301) (Streptococcus sp.; strain ATCC 6301) | MIC Streptococcus pneumoniae (GC 1894) (Streptococcus sp.; strain GC 1894) | MIC Streptococcus pneumoniae (GC 4565) (Streptococcus sp.; strain GC 4565) | MIC Coagulase Negative Staphylococcus (GC 6257) (Staphylococcus sp.; 5×10^5 CFU/mL) | MIC Escherichi coli (GC 4560) (Escherichia coli; strain GC 4560)
>64 µg/mL: MIC Enterococcus avium (GC 4558) (Enterococcus sp.; [1]) | MIC Enterococcus faecalis (ATCC 29212) (Enterococcus sp.; [1]) | MIC Enterococcus faecalis (GC 2242) (Enterococcus sp.; [1]) | MIC Enterococcus faecalis (GC 2691) (Enterococcus sp.; [1]) | MIC Enterococcus faecalis (GC 3059) (Enterococcus sp.; [1]) | MIC Enterococcus faecalis (GC 4552) (Enterococcus sp.; [1]) | MIC Enterococcus faecalis (GC 4553) (Enterococcus sp.; [1]) | MIC Enterococcus faecalis (GC 4554) (Enterococcus sp.; [1]) | MIC Enterococcus faecalis (GC 6189) (Enterococcus sp.; [1]) | MIC Enterococcus faecium (GC 2243) (Enterococcus sp.; [1]) | MIC Enterococcus faecium (GC 4556) (Enterococcus sp.; [1]) | MIC Enterococcus faecalis (ATCC 29212) (Enterococcus sp.; strain ATCC 29212) | MIC Enterococcus faecalis (GC 2242) (Enterococcus sp.; strain GC 2242) | MIC Enterococcus faecium (GC 2243) (Enterococcus sp.; strain GC 2243) | MIC Enterococcus faecalis (GC 2691) (Enterococcus sp.; strain GC 2691) | MIC Enterococcus faecalis (GC 3059) (Enterococcus sp.; strain GC 3059) | MIC Enterococcus faecalis (GC 4552) (Enterococcus sp.; strain GC 4552) | MIC Enterococcus faecalis (GC 4553) (Enterococcus sp.; strain GC 4553) | MIC Enterococcus faecalis (GC 4554) (Enterococcus sp.; strain GC 4554) | MIC Enterococcus faecium (GC 4556) (Enterococcus sp.; strain GC 4556) | MIC Enterococcus avium (GC 4558) (Enterococcus sp.; strain GC 4558) | MIC Enterococcus faecalis (GC 6189) (Enterococcus sp.; strain GC 6189) | MIC Coagulase Negative Staphylococcus (GC 4551) (Staphylococcus sp.; 5×10^5 CFU/mL) | MIC Staphylococcus aureus (GC 3053) (Staphylococcus sp.; 5×10^5 CFU/mL) | MIC Staphylococcus aureus (GC 3053) (Staphylococcus sp.; strain GC 3053) | MIC Escherichia coli (ATCC 25922) (Escherichia coli; strain ATCC 25922) | MIC Escherichia coli (GC 4559) (Escherichia coli; strain GC 4559)
32 µg/mL: MIC Enterococcus faecium (GC 4557) (Enterococcus sp.; [1]) | MIC Enterococcus faecium (GC 4557) (Enterococcus sp.; strain GC 4557) | MIC Streptococcus agalactiae (GC 4564) (Streptococcus sp.; [1]) | MIC Streptococcus agalactiae (GC 4564) (Streptococcus sp.; strain GC 4564) | MIC Coagulase Negative Staphylococcus (GC 4547) (Staphylococcus sp.; 5×10^5 CFU/mL) | MIC Coagulase Negative Staphylococcus (GC 4548) (Staphylococcus sp.; 5×10^5 CFU/mL) | MIC Staphylococcus aureus (ATCC 29213) (Staphylococcus sp.; 5×10^5 CFU/mL) | MIC Staphylococcus aureus (GC 1131) (Staphylococcus sp.; 5×10^5 CFU/mL) | MIC Staphylococcus aureus (GC 3051) (Staphylococcus sp.; 5×10^5 CFU/mL) | MIC Staphylococcus aureus (GC 4541) (Staphylococcus sp.; 5×10^5 CFU/mL) | MIC Staphylococcus aureus (GC 4542) (Staphylococcus sp.; 5×10^5 CFU/mL) | MIC Staphylococcus aureus (GC 4544) (Staphylococcus sp.; 5×10^5 CFU/mL) | MIC Staphylococcus aureus (GC 4545) (Staphylococcus sp.; 5×10^5 CFU/mL) | MIC Staphylococcus aureus-SMITH (GC 4543) (Staphylococcus sp.; 5×10^5 CFU/mL) | MIC Staphylococcus haemolyticus (GC 4546) (Staphylococcus sp.; 5×10^5 CFU/mL) | MIC Staphylococcus aureus (ATCC 29213) (Staphylococcus sp.; strain ATCC 29213) | MIC Staphylococcus aureus (GC 1131) (Staphylococcus sp.; strain GC 1131) | MIC Staphylococcus aureus (GC 3051) (Staphylococcus sp.; strain GC 3051) | MIC Staphylococcus aureus (GC 4541) (Staphylococcus sp.; strain GC 4541) | MIC Staphylococcus aureus (GC 4542) (Staphylococcus sp.; strain GC 4542) | MIC Staphylococcus aureus (GC 4544) (Staphylococcus sp.; strain GC 4544) | MIC Staphylococcus aureus (GC 4545) (Staphylococcus sp.; strain GC 4545)
16 µg/mL: MIC Streptococcus pyogenes (GC 4563) (Streptococcus sp.; [1]) | MIC Streptococcus pyogenes (GC 4563) (Streptococcus sp.; strain GC 4563) | MIC Coagulase Negative Staphylococcus (GC 4549) (Staphylococcus sp.; 5×10^5 CFU/mL)
